US20250066318A1, “HETEROCYCLIC COMPOUNDS AS DYRK1A INHIBITORS” (Prothena Biosciences Limited, priority 2021, published 2025)

Molecular target: DYRK1A (Homo sapiens (Human), UniProt Q13627)
Assay: DYRK1A Inhibition Assay
Type: biochemical
Conditions: Selected Compounds of Formula (I); DYRK1A 1 nM, ATP 20 μM, Ser/Thr 18 peptide 2 μM, 90 minutes; read-out: DYRK1 IC50
Description: DYRK1A—Invitrogen #PV4105
Ser/Thr 18 peptide—Invitrogen #PR8227U Phos-Ser/Thr 18 peptide—Invitrogen #PR8229U Assay plate—PerkinElmer #6007279
Development reagent A—Invitrogen #PR5194B Development buffer—Invitrogen #PR4876B
1. Test compounds were diluted to 1 mM in DMSO 2. Stock was further diluted 3-fold using Echo platform 3. 100 nL of DMSO into Columns 1 and 24 and 100 nL of compounds dilutions to Columns 2-23 in a plate.
1. Add 5 μL enzyme & substrate mixture to each well in Column 2-23 and A24-H24 wells of the 384-well assay plate; 2. Add 5 μL 0% Phosphorylation control to A1-H1 and I24-P24 wells of the assay plate; 3. Add 5 μL 100% Phosphorylation control to I1-P1 wells of the assay plate; 4. Spin the assay plate (1000 rpm, 1 minute @23° C.); 5. Incubate enzyme with compounds for 15 minutes at 23° C.; 6. Add 5 μL ATP solution to each well of the assay plate; 7. Spin the plate (1000 rpm, 1 minute @23° C.); 8. Incubate the assay plate for 90 minutes at 23° C.; 9. Add 10 μL Development reagent A to each well of the assay plate; 10. Centrifuge the plate at 1000 rpm about 15 seconds and seal a film over assay plate. Incubate the assay plate for 30 minutes at 23° C. 11. Read assay plates on Envision (see Tables A, B, and C).
Final Compound Concentrations
Assay buffer: 50 mM Hepes pH7.5, 10 mM MgCl2, 1 mM EDTA, 0.01% Brij-35
Ser/Thr 18 peptide: 2 μM Reaction time: 90 minutes

| SMILES | IC50 [µM] |
| --- | --- |
| O=C(O)[C@H]1C[C@H](Nc2ncc(-c3ccc4cnccc4c3)s2)C1 [Compound 72] | ≤ 0.01 |
| CN1CC(OC(=O)Nc2cc3cc(-c4cnn(C)c4)ccc3cn2)C1 [Compound 84] | ≤ 0.01 |
| O=C(O)C1CCN(Cc2cncc3ccc(-c4cnc(C#CC5CCOCC5)s4)cc23)CC1 [Compound 91] | 0.1 to 1 |
| CC(C)(O)C#Cc1ncc(-c2ccc3cncc(CN4CCC(C(=O)O)CC4)c3c2)s1 [Compound 109] | > 1 |
